Experimental data from PMC10892419, “UHPLC-MS/MS Assay for Quantification of Legubicin, a Novel Doxorubicin-Based Legumain-Activated Prodrug, and Its Application to Pharmacokinetic and Tissue Distribution Studies” (Molecules, 2024).

What was measured:
[1] = Multiple-dose pharmacokinetic study of legubicin, weekly i.v. for 4 weeks; settings: free metabolite in plasma, weekly i.v. legubicin 5 mg/kg; for Tmax: median [min, max]; for AUClast / Cmax: n = 3
Experimental: (§1) The mixture was vortexed for 3 min, and then centrifuged at 22,000× g at 4 °C for 10 min. A final analysis was conducted by injecting 5 µL supernatant into a UHPLC-MS/MS system. Mouse plasma samples were treated in the same way as the rat plasma samples, except for protein precipitation, with 200 µL of 5 pmol/mL IS working solution and injection of 2 µL of supernatant for analysis.
(§2) (1) For the hydrolysis process, an aliquot of 25 µL of rat/mouse plasma was transferred into an Eppendorf tube, and then 50 µL of enzyme digestion buffer and 25 µL of legumain enzyme were placed into the tube. The mixture was vortexed for 1 min, and then incubated in a water bath for 24 h at 37 °C for enzymatic hydrolysis. (2) For the protein precipitation process, 1000 µL of IS working solution (5 pmol/mL and 50 pmol/mL for rat and mouse plasmas, respectively) was added to the enzymatic-hydrolysis solution. Then, the sample was vortexed for 3 min and centrifuged at 22,000× g for 10 min at 4 °C. Analyses were performed on the 3 µL aliquot of the solution used in the UHPLC-MS/MS system.
(§3) Twenty-four rats, inclusive of both sexes, were randomly distributed into four groups. Groups 1, 2, and 3 were single-dose groups, among which the subjects received legubicin via tail intravenous injection (a dose of 1.5, 5, or 15 mg/kg; i.e., 1.36, 4.52, or 13.6 µmol/kg). The fourth group was utilized for a multi-dose study at 5 mg/kg (once-weekly for 4 consecutive weeks). Blood samples of approximately 150 µL were taken from the jugular vein at 0 h (pre-dosing) and at 0.167 h (10 min), 0.5 h, 1 h, 2 h, 4 h, 8 h, 24 h, 48 h, and 72 h post-dosing in the single-dose groups. Samples were also obtained on days 1 and 22 for the multiple-dose group in the same way as for the single-dose groups. However, on days 8 and 15, samples were taken only before and 10 min after administration. The K2EDTA quantities containing blood samples were centrifuged (4 °C, 4000 rpm, 10 min) to collect plasma samples, which were separated into EP tubes and kept at −80 °C until further assay.
(§4) The analysis software (Version 1.5.2, AB Sciex, Vaughan, ON, Canada) was applied to data acquisition and quantification. Pharmacokinetic parameters were calculated with WinNonlin Phoenix (v6.4, Pharsight, Mountain View, CA, USA) with the noncompartmental method, and were presented as mean ± SD (%CV). The “Best fit” strategy in the WinNonlin Phoenix was used for the calculation of elimination half-life and the selection of the elimination phase. Graphs were plotted by GraphPad Software (GraphPad Prism 8.0.2; GraphPad Software, Inc., La Jolla, CA, USA).

[2] = Tissue-distribution study after i.v. legubicin or doxorubicin; settings: after i.v. legubicin 9.05 µmol/kg, HT1080 tumor-bearing mice
Experimental: as §1
Each legubicin administration group corresponded to a sampling time-point (4, 16, 32, 48, 96, 168, and 240 h after administration). […] Blood samples and tumor, heart, and kidney tissues were collected at the sampling time points (4, 16, 32, 48, 96, 168, and 240 h after dosing). In addition, liver, spleen, lung, stomach, small intestine, gonads, brain, skeletal muscle, and skin were also collected at 4, 32, 96, and 240 h post-dose time points in the legubicin administration group. All whole-blood samples were processed according to the same processing steps, described above, for rat whole-blood samples.
as §4

[3] = Storage stability of analytes in mouse liver homogenate (method validation)
Experimental: (§5) Tumor-bearing mouse tumor/individual tissue samples were homogenized by adding PBS at a ratio of 1:5 (e.g., 1 g of tumor sample to 5 mL of PBS) to make a tumor/tissue homogenate. A quantity of 60 µL of homogenate was taken as a tumor/tissue sample and processed in the same manner as the mouse plasma sample, with the exception of 240 µL of IS working solution used for protein precipitation.
(§6) By investigating low- and high-concentration stability QCs in six replicates at different storage conditions, autosampler, short-term (bench-top), freeze and thaw, and long-term stability evaluations were conducted.

[4] = Single-dose pharmacokinetic study of legubicin, i.v.; settings: free metabolite in plasma; for AUClast / Cmax: n = 3, mean ± SD; for Tmax: n = 3, median [min, max]
Experimental: The pharmacokinetic parameters are outlined in Table 5. […] A power-function model was used to fit the relationship between exposure level (Cmax, AUClast, and AUCINF_obs) parameters and dose, and the power exponent (parameter β) and its 90% confidence interval were obtained (see Table S5).
as §1, §2, §3, §4

[5] = Storage stability of analytes in rat plasma (method validation); settings: for Auto-Sampler Stability at 2–8 °C (72 h), Bias / Auto-Sampler Stability at 2–8 °C (72 h), Measured Concentration: processed rat plasma; for Auto-Sampler Stability at 2–8 °C (72 h), Bias / Short-Term Stability at Room Temperature (4 h), Bias / Freeze and Thaw Stability at −80 °C/Room Temperature (3 Cycles), Bias / Long-Term Stability at −80 °C (70 days), Bias: n = 6; for Auto-Sampler Stability at 2–8 °C (72 h), Measured Concentration / Freeze and Thaw Stability at −80 °C/Room Temperature (3 Cycles), Measured Concentration / Long-Term Stability at −80 °C (70 days), Measured Concentration / Short-Term Stability at Room Temperature (4 h), Measured Concentration: n = 6, mean ± SD; for Short-Term Stability at Room Temperature (4 h), Bias / Freeze and Thaw Stability at −80 °C/Room Temperature (3 Cycles), Bias / Long-Term Stability at −80 °C (70 days), Bias / Freeze and Thaw Stability at −80 °C/Room Temperature (3 Cycles), Measured Concentration / Long-Term Stability at −80 °C (70 days), Measured Concentration / Short-Term Stability at Room Temperature (4 h), Measured Concentration: rat plasma; for Short-Term Stability at Room Temperature (4 h), Bias: bias from nominal
Experimental: as §6

[6] = Storage stability of analytes in mouse tumor homogenate (method validation)
Experimental: as §5, §6

[7] = female SD rats, multiple dose (day 22)
[8] = female SD rats, single dose (day 1)
[9] = male SD rats, multiple dose (day 22)
[10] = male SD rats, single dose (day 1)
[11] = female SD rats, single i.v. legubicin 1.5 mg/kg
[12] = female SD rats, single i.v. legubicin 5 mg/kg
[13] = female SD rats, single i.v. legubicin 15 mg/kg
[14] = male SD rats, single i.v. legubicin 1.5 mg/kg
[15] = male SD rats, single i.v. legubicin 5 mg/kg
[16] = male SD rats, single i.v. legubicin 15 mg/kg
[17] = high QC (Leu-DOX 4000, DOX 1200 pmol/mL, conjugate 80 nmol/mL)
[18] = high QC (nominal Leu-DOX 4000, DOX 1200 pmol/mL)
[19] = low QC (Leu-DOX 10, DOX 3 pmol/mL, conjugate 0.2 nmol/mL)
[20] = low QC (nominal Leu-DOX 10, DOX 3 pmol/mL)

SMILES: COc1cccc2c1C(=O)c1c(O)c3c(c(O)c1C2=O)C[C@@](O)(C(=O)CO)C[C@@H]3O[C@H]1C[C@H](NC(=O)[C@@H](N)CC(C)C)[C@H](O)[C@H](C)O1 [Leu-DOX, N-L-leucyl-doxorubicin]
- Tmax [1, 7]: 0.167 [0.167, 0.167] h
- AUClast [1, 7]: 0.0604 ± 0.00643 µM·h
- Cmax [1, 7]: 80.3 ± 8.57 nM
- Tmax [1, 8]: 0.167 [0.167, 0.167] h
- AUClast [1, 8]: 0.0387 ± 0.00104 µM·h
- Cmax [1, 8]: 60.0 ± 6.89 nM
- Tmax [1, 9]: 0.167 [0.167, 0.167] h
- AUClast [1, 9]: 0.112 ± 0.014 µM·h
- Cmax [1, 9]: 141 ± 22.0 nM
- Tmax [1, 10]: 0.167 [0.167, 0.167] h
- AUClast [1, 10]: 0.081 ± 0.0133 µM·h
- Cmax [1, 10]: 111 ± 13.5 nM
- brain penetration of the metabolite [2]: neither the metabolite doxorubicin nor free Leu-Dox permeated the brain
- tissue concentration rank order of the metabolite ([2]; n = 6): highest concentration in the liver, followed by the spleen, small intestine, kidney, tumor, lung, skin, gonads, stomach, plasma, skeletal muscle, and heart
- Freeze and thaw stability at -80 °C/ room temperature, Bias ([3]; mouse liver homogenate, 3 cycles, low QC (Leu-DOX 27, DOX 10 pmol/mL), n = 6): 0.9%
- Freeze and thaw stability at -80 °C/ room temperature, Measured concentration ([3]; mouse liver homogenate, 3 cycles, low QC (nominal Leu-DOX 27, DOX 10 pmol/mL), n = 6, mean ± SD): 27.23 ± 1.55 pmol/mL
- Short term stability at room temperature (6 h), Bias ([3]; mouse liver homogenate, low QC (Leu-DOX 27, DOX 10 pmol/mL), n = 6): -4.8%
- Short term stability at room temperature (6 h), Measured concentration ([3]; mouse liver homogenate, low QC (nominal Leu-DOX 27, DOX 10 pmol/mL), n = 6, mean ± SD): 25.72 ± 1.45 pmol/mL
- Auto-sampler stability at 2-8 °C, Bias ([3]; processed mouse liver homogenate, 48h, low QC (Leu-DOX 27, DOX 10 pmol/mL), n = 6): 3.6%
- Auto-sampler stability at 2-8 °C, Measured concentration ([3]; processed mouse liver homogenate, 48h, low QC (nominal Leu-DOX 27, DOX 10 pmol/mL), n = 6, mean ± SD): 27.97 ± 3.06 pmol/mL
- AUClast [4, 11]: 0.00644 ± 0.00202 µM·h
- Cmax [4, 11]: 21.5 ± 7.78 nM
- Tmax [4, 11]: 0.167 [0.167, 0.167] h
- AUClast [4, 12]: 0.052 ± 0.0162 µM·h
- Cmax [4, 12]: 72.1 ± 16.0 nM
- Tmax [4, 12]: 0.167 [0.167, 0.167] h
- AUClast [4, 13]: 0.336 ± 0.0625 µM·h
- Cmax [4, 13]: 373 ± 63.2 nM
- Tmax [4, 13]: 0.167 [0.167, 0.167] h
- AUClast [4, 14]: 0.0112 ± 0.0021 µM·h
- Cmax [4, 14]: 29.5 ± 2.74 nM
- Tmax [4, 14]: 0.167 [0.167, 0.167] h
- AUClast [4, 15]: 0.0943 ± 0.0105 µM·h
- Cmax [4, 15]: 145 ± 23.9 nM
- Tmax [4, 15]: 0.167 [0.167, 0.167] h
- AUClast [4, 16]: 1.03 ± 0.244 µM·h
- Cmax [4, 16]: 1100 ± 243 nM
- Tmax [4, 16]: 0.167 [0.167, 0.167] h
- Auto-Sampler Stability at 2–8 °C (72 h), Bias [5, 17]: −6.0%
- Auto-Sampler Stability at 2–8 °C (72 h), Measured Concentration [5, 18]: 3758.33 ± 422.58 nM
- Auto-Sampler Stability at 2–8 °C (72 h), Bias [5, 19]: −0.4%
- Auto-Sampler Stability at 2–8 °C (72 h), Measured Concentration [5, 20]: 9.96 ± 0.48 nM
- Short-Term Stability at Room Temperature (4 h), Bias [5, 17]: −3.2%
- Freeze and Thaw Stability at −80 °C/Room Temperature (3 Cycles), Bias [5, 17]: −5.6%
- Long-Term Stability at −80 °C (70 days), Bias [5, 17]: 7.5%
- Freeze and Thaw Stability at −80 °C/Room Temperature (3 Cycles), Measured Concentration [5, 18]: 3775.00 ± 329.89 pmol/mL
- Long-Term Stability at −80 °C (70 days), Measured Concentration [5, 18]: 4300.00 ± 240.83 pmol/mL
- Short-Term Stability at Room Temperature (4 h), Measured Concentration [5, 18]: 3871.67 ± 390.25 pmol/mL
- Short-Term Stability at Room Temperature (4 h), Bias [5, 19]: −2.4%
- Freeze and Thaw Stability at −80 °C/Room Temperature (3 Cycles), Bias [5, 19]: 2.0%
- Long-Term Stability at −80 °C (70 days), Bias [5, 19]: 0.7%
- Freeze and Thaw Stability at −80 °C/Room Temperature (3 Cycles), Measured Concentration [5, 20]: 10.20 ± 0.70 pmol/mL
- Long-Term Stability at −80 °C (70 days), Measured Concentration [5, 20]: 10.07 ± 1.50 pmol/mL
- Short-Term Stability at Room Temperature (4 h), Measured Concentration ([5]; low QC (nominal Leu-DOX 10, DOX 3 pmol/mL), UHPLC-MS/MS): 9.76 ± 0.41 pmol/mL
- Freeze and thaw stability at -80 °C/ room temperature, Bias ([6]; mouse tumor homogenate, 3 cycles, low QC (Leu-DOX 27, DOX 9 pmol/mL), n = 6): 2.6%
- Freeze and thaw stability at -80 °C/ room temperature, Measured concentration ([6]; mouse tumor homogenate, 3 cycles, low QC (nominal Leu-DOX 27, DOX 9 pmol/mL), n = 6, mean ± SD): 27.70 ± 1.13 pmol/mL
- Short term stability at room temperature (6 h), Bias ([6]; mouse tumor homogenate, low QC (Leu-DOX 27, DOX 9 pmol/mL), n = 6): 2.2%
- Short term stability at room temperature (6 h), Measured concentration ([6]; mouse tumor homogenate, low QC (nominal Leu-DOX 27, DOX 9 pmol/mL), n = 6, mean ± SD): 27.58 ± 1.95 pmol/mL
- Auto-sampler stability at 2-8 °C, Bias ([6]; processed mouse tumor homogenate, 48h, low QC (Leu-DOX 27, DOX 9 pmol/mL), n = 6): -0.4%
- Auto-sampler stability at 2-8 °C, Measured concentration ([6]; processed mouse tumor homogenate, 48h, low QC (nominal Leu-DOX 27, DOX 9 pmol/mL), n = 6, mean ± SD): 26.88 ± 0.94 pmol/mL
